These results are taken from US20260317320A1, “C5AR1 ANTAGONISTS AND USES THEREOF” (Vanqua Bio, Inc., priority 2022, published 2026).

For assay [1], the target named is T1, complement C5a receptor 1 (C5aR1) (Homo sapiens, UniProt P21730).
T1 construct: β-galactosidase fragment (PathHunter enzyme complementation); host or cells: CHO-K1 (PathHunter CHO-K1 C5aR1 β-arrestin cell line)
T1 sequence (P21730 1-350): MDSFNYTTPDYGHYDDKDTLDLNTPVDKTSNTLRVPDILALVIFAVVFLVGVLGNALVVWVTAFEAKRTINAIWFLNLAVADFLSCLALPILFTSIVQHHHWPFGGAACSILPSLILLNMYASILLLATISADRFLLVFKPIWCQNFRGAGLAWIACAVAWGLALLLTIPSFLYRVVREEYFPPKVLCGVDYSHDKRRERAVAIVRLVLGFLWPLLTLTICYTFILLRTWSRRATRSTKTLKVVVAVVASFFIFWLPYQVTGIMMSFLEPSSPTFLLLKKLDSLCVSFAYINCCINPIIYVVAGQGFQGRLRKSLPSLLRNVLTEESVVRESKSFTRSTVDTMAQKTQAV
As to the kind of experiment: β-arrestin recruitment via C5aR1 activation in live CHO-K1 cells (PathHunter), antagonist mode. Type of assay: cell-based. The conditions noted are these: antagonist mode; recombinant hC5a (EC90) as competing natural agonist; live CHO-K1 cells; read-out: [Antagonist] B-arrestin2 recruitment: Average IC50. The procedure, abridged: (§1)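 β-arrestin recruitment to C5aR1 in CHO-K1 cells is detected by enzyme-fragment complementation. Antagonism is measured against recombinant hC5a at its EC90; agonism is measured with compound alone. Potencies are grouped into IC50 categories.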
(Arrestin recruitment assays detect the binding of arrestin to an activated receptor.)

Assay [2] has as its target T1, complement C5a receptor 1 (C5aR1). As to the kind of experiment: β-arrestin recruitment via C5aR1 activation in live CHO-K1 cells (PathHunter), agonist mode. Type of assay: cell-based. The procedure, abridged: as §1

SMILES strings stand for the structures. Like-named read-outs stand apart in the source and are kept apart here.

In the case of `Cc1ncc(F)cc1N1CCC(c2cc3nccnc3n(Cc3ncccc3C(F)(F)F)c2=O)CC1` [compound 44, 7-(1-(5-Fluoro-2-methylpyridin-3-yl)piperidin-4-yl)-5-((3-(trifluoromethyl)pyridin-2-yl)methyl)pyrido[2,3-b]pyrazin-6(5H)-one], the IC50 (in general, the concentration at which inhibition is half-maximal) in assay [1] is above 100000 nM. In addition, the “[Agonist] B-arrestin2 recruitment: Average EC50 (nM)” value (shortened to “[Agonist] B-arrestin2 recruitment”) in assay [2] is recorded as “Non-Active”.

In the case of `Cc1ccnc(F)c1N1CCC(c2c(C)c3nccnc3n(Cc3ncccc3C(F)(F)F)c2=O)CC1` [compound 62, 7-(1-(2-Fluoro-4-methylpyridin-3-yl)piperidin-4-yl)-8-methyl-5-((3-(trifluoromethyl)pyridin-2-yl)methyl)pyrido[2,3-b]pyrazin-6(5H)-one], in assay [1], the concentration for half-maximal inhibition (IC50) was 500 to 5000 nM. The “[Agonist] B-arrestin2 recruitment” value in assay [2] is listed as “Non-Active”.

For the compound `Cc1ccc2cc([C@H]3CC[C@H](c4c(F)cccc4F)CC3)c(=O)n(Cc3ncccc3OC(F)(F)F)c2n1` [compound 246, 3-((1r,4r)-4-(2,6-Difluorophenyl)cyclohexyl)-7-methyl-1-((3-(trifluoromethoxy)pyridin-2-yl)methyl)-1,8-naphthyridin-2(1H)-one], in assay [1], the IC50 is below 500 nM. Also, the “[Agonist] B-arrestin2 recruitment” value in assay [2] (at 10 μM) is “Non-Active at 10 μM”.

`Cc1cnc2c(cc(C3CCN(c4c(C)cccc4F)CC3)c(=O)n2Cc2ccccc2C(F)(F)F)n1` [compound 55, 7-(1-(2-Fluoro-6-methylphenyl)piperidin-4-yl)-2-methyl-5-(2-(trifluoromethyl)-benzyl)-pyrido[2,3-b]pyrazin-6(5H)-one]: the IC50 in assay [1] lay within 500 to 5000 nM. Further, the “[Agonist] B-arrestin2 recruitment” value in assay [2] is listed as “Non-Active”.

With `Cc1cnc2cc(C3CCN(c4c(C)cccc4F)CC3)c(=O)n(Cc3ncccc3C(F)F)c2n1` [compound 138, 5-((3-(Difluoromethyl)pyridin-2-yl)methyl)-7-(1-(2-fluoro-6-methylphenyl)piperidin-4-yl)-3-methylpyrido[2,3-b]pyrazin-6(5H)-one], in assay [1], the IC50 is below 500 nM. Also, the “[Agonist] B-arrestin2 recruitment” value in assay [2] is “Non-Active”.
